According to ChEMBL document CHEMBL5727241, “Benzazepine dicarboxamide compounds with tertiary amide function” (2019):
pEC50: −log10 of the molar value.

Assays:
[1] = molecular target: T1, Toll-like receptor 7 (Homo sapiens, UniProt Q9NYK1); assay: (§1) Pharmacological Assay: For TLR8 and TLR7 activity testing, HEK-Blue human TLR8 or TLR7 cells (Invivogen, San Diego, Calif., USA) are used, respectively. These cells are designed for studying the stimulation of human TLR8 or TLR7 by monitoring the activation of NF-κB. A SEAP (secreted embryonic alkaline phosphatase) reporter gene is placed under the control of the IFN-b minimal promoter fused to five NF-κB and AP-1-binding sites. Therefore the reporter expression is regulated by the NF-κB promoter upon stimulation of human TLR8 or TLR7 for 20 hours. The cell culture supernatant SEAP reporter activity was determined using Quanti Blue kit (Invivogen, San Diego, Ca, USA) at a wavelength of 640 nm, a detection medium that turns purple/blue in the presence of alkaline phosphatase.
T1 sequence (Q9NYK1 whole entry): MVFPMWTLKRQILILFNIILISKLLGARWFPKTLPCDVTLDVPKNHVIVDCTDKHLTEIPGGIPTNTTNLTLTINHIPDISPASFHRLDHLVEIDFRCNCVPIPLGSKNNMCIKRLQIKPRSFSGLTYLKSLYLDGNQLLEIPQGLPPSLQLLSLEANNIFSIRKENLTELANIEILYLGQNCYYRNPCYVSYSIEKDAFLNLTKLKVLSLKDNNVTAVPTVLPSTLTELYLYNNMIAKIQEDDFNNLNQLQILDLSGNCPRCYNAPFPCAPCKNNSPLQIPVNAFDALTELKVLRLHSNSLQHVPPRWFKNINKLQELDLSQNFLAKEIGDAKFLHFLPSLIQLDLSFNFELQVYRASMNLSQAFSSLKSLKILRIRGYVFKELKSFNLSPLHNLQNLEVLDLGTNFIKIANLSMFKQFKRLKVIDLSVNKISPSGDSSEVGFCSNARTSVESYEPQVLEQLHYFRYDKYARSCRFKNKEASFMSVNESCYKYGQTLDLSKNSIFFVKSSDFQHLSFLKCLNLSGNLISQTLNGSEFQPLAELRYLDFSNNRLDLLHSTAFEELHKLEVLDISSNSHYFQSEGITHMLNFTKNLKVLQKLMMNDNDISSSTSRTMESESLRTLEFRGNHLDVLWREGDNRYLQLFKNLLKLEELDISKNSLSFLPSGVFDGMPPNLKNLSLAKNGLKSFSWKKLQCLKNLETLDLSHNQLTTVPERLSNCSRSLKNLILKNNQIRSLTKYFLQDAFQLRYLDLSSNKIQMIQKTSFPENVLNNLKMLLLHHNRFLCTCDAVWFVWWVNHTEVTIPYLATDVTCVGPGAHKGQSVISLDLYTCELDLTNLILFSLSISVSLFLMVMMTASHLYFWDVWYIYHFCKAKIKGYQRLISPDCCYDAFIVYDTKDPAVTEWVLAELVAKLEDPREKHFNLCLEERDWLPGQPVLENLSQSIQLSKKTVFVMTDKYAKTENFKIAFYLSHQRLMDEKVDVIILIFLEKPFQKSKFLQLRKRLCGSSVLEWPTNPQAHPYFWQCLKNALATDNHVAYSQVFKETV

[2] = molecular target: T2, Toll-like receptor 8 (Homo sapiens, UniProt Q9NR97); assay: as §1
T2 sequence (Q9NR97 whole entry): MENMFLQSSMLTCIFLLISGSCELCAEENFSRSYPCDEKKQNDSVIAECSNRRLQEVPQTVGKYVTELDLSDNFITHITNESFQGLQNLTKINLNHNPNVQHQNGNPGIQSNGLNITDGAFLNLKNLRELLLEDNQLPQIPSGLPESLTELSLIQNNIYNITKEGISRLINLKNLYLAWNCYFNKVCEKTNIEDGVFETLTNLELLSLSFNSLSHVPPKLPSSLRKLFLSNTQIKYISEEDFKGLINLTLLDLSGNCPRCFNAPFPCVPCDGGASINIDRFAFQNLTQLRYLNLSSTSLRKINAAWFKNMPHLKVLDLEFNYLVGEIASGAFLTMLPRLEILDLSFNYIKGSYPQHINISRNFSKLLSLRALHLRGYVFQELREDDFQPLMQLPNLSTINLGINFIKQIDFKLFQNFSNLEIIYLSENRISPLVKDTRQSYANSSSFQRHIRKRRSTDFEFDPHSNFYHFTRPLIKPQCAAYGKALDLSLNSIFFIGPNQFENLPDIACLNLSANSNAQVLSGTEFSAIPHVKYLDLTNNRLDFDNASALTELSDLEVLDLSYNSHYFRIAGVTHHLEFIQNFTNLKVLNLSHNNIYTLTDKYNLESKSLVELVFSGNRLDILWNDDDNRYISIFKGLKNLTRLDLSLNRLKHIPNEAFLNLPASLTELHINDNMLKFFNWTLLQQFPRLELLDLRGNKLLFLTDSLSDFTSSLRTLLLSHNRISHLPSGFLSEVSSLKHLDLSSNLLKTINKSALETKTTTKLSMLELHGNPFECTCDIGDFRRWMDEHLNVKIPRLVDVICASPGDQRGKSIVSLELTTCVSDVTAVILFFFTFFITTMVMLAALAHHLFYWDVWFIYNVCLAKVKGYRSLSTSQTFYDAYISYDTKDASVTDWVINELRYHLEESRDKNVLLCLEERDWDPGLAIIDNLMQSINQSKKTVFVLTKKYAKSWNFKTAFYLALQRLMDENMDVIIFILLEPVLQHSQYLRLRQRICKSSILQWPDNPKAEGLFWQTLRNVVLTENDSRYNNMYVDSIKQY

pEC50 [1]: 4.82
pEC50 [2]: 8.40
SMILES: CCCN(CCC)C(=O)C1=Cc2ccc(C(=O)N3CC(OCc4ccccc4)C3)cc2N=C(N)C1
